The source of these data is patent US10316035B2, “Triazolopyridine inhibitors of myeloperoxidase” (BRISTOL-MYERS SQUIBB COMPANY, priority 2015, dated 2019).

The structures appear in SMILES notation.

For orientation: IC50 means the concentration needed to halve the response being measured.

In test [1] the target is T1, myeloperoxidase (MPO) (Homo sapiens, UniProt P05164).
T1 sequence (P05164 49-745): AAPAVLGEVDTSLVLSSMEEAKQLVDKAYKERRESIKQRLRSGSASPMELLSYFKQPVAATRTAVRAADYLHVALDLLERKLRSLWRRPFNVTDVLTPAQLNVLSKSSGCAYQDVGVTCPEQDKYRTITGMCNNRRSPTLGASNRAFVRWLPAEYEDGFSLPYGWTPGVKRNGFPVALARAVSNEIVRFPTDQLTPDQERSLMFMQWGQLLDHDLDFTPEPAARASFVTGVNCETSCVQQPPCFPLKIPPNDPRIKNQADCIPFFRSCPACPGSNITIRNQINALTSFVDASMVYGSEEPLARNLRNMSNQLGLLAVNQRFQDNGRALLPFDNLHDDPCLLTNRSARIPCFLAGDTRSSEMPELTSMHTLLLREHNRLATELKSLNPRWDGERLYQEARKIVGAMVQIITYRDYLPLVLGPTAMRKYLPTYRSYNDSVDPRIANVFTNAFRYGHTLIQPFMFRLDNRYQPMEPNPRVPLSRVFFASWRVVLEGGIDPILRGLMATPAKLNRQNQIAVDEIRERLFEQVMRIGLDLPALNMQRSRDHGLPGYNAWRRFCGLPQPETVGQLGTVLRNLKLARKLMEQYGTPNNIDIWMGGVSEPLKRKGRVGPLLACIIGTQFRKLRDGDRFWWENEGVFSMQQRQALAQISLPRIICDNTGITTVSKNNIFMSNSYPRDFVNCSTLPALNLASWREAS
Briefly: MPO peroxidation assay (Amplex Red assay). It is filed as biochemical. The note with it: MPO peroxidation, potency range class; read-out: Amplex Red IC50. Summed up:
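MPO (200 pM) with 40 nM H2O2 was preincubated 10 min at room temperature with inhibitor in 100 mM KPi pH 7.4. A mix of Amplex Red (200 μM) and H2O2 (10 mM) was then added and resorufin fluorescence read kinetically for 15 min. Slopes over 180–540 s gave % inhibition and IC50 via a four-parameter Hill fit.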

Test [2] concerns the target T1, myeloperoxidase (MPO). As to the kind of experiment: MPO chlorination assay (APF assay). It counts as biochemical. The note with it: MPO chlorination, potency range class; read-out: APF IC50. As to the method:
[formula] where A=minimal Y value (activity level of inhibited sample), B=maximal Y value (activity level of uninhibited sample), C=Log IC50, D=Hill Slope, x=concentration of inhibitor. MPO Chlorination Assay (APF Assay)
MPO chlorination activity was measured in 100 mM KPi (pH 7.4) by utilizing the non-fluorescent reagent Aminophenyl fluorescein (APF, Invitrogen catalog #A36003). APF is cleaved by (—OCl) to yield the fluorescent compound fluorescein. Reactions were carried out in 50 μL total volume by adding a 25 μL mixture of 200 pM myeloperoxidase and 120 mM NaCl to 100 nL inhibitor in 100% DMSO in a 384 well, non-binding surface clear bottom plate (CORNING® #3655). Enzyme, inhibitor, and chloride were preincubated for ten minutes at room temperature.
After the ten minute preincubation, 25 μL of an APF mixture containing […], 120 mM NaCl and 10 μM H2O2 was added to the plate using the internal dispensing system of a Hammatsu FDSS 6000. Kinetic determinations were carried out immediately on the FDSS 6000 (3 minute kinetic read, 1 read every second, ex: 485 nm, em: 535 nm). IC50 values for inhibitors were calculated by taking the slope of the linear portion of the kinetic measurement (20 seconds to ˜80-120 secs).
IC50 values were calculated by determining the slope of the linear portion of the kinetic trace ([…]), and using that calculated slope to determine % inhibition occurring at each concentration of inhibitor using the following equation:
[formula] where A=minimal Y value (activity level of inhibited sample), B=maximal Y value (activity level of uninhibited sample), C=Log IC50, D=Hill Slope, x=concentration of inhibitor. EPX Bromination Assay

In the case of `Nc1cc(OCc2cc(Cl)ccc2OC(F)(F)F)c2nn[nH]c2n1` [Example 36, 7-(5-Chloro-2-(trifluoromethoxy)benzyloxy)-3H-[1,2,3]triazolo[4,5-b]pyridin-5-amine], the IC50 in test [1] and in test [2] was 1 to 100 nM in each case.

As to `Nc1cc(OCc2cc(Cl)ccc2OC2CCCC2)c2nn[nH]c2n1` [Example 43, 7-(5-Chloro-2-(cyclopentyloxy)benzyloxy)-3H-[1,2,3]triazolo[4,5-b]pyridin-5-amine], the values for the IC50 in test [1] and in test [2] were 1 to 100 nM and 101 to 999 nM, respectively.

Regarding `CS(=O)(=O)c1ccc(Cl)cc1COc1cc(N)nc2[nH]nnc12` [Example 50, 7-(5-Chloro-2-(methylsulfonyl)benzyloxy)-3H-[1,2,3]triazolo[4,5-b]pyridin-5-amine], the half-maximal inhibitory concentration (IC50) in test [1] lay within 1 to 100 nM; in test [2], 101 to 999 nM.

With `Nc1cc(OCC2CCCc3ccccc32)c2nn[nH]c2n1` (stereo not drawn) [Example 52, 7-((1,2,3,4-Tetrahydronaphthalen-1-yl)methoxy)-3H-[1,2,3]triazolo[4,5-b]pyridin-5-amine], the concentration for half-maximal inhibition (IC50) in test [1] lay within 101 to 999 nM; in test [2], 1000 to 10000 nM.

In the case of `COc1ccc(Cl)cc1COc1cc(N)nc2[nH]nnc12` [Example 57, 7-(5-Chloro-2-methoxybenzyloxy)-3H-[1,2,3]triazolo[4,5-b]pyridin-5-amine], the half-inhibitory concentration (IC50) in test [1] and in test [2] was 1 to 100 nM each time.

Take `Nc1cc(OCc2cc(Br)ccc2F)c2nn[nH]c2n1` [Example 61, 7-(5-Bromo-2-fluorobenzyloxy)-3H-[1,2,3]triazolo[4,5-b]pyridin-5-amine]: the IC50 in test [1] and in test [2] was 1 to 100 nM throughout.

As to `CC1CCCC(C)C1COc1cc(N)nc2[nH]nnc12` (stereo not drawn) [Example 133, 7-((2,6-Dimethylcyclohexyl)methoxy)-3H-[1,2,3]triazolo[4,5-b]pyridin-5-amine], the concentration for half-maximal inhibition (IC50) lay within 1 to 100 nM in test [1] and 101 to 999 nM in test [2].

Take `CC(Oc1cc(N)nc2[nH]nnc12)c1cccc(F)c1` (stereo not drawn) [Example 139, 7-(1-(3-Fluorophenyl)ethoxy)-3H-[1,2,3]triazolo[4,5-b]pyridin-5-amine]: the concentration for half-maximal inhibition (IC50) was in the range of 1 to 100 nM in test [1] and 101 to 999 nM in test [2].

Turning to `Nc1cc(OCc2cc(C(=O)N3CCC(Cc4ccccc4)C3)ccc2Cl)c2nn[nH]c2n1` (stereo not drawn) [Example 177, (3-((5-amino-3H-[1,2,3]triazolo [4,5-b]pyridin-7-yloxy)methyl)-4-chlorophenyl)(3-benzylpyrrolidin-1-yl)methanone], the IC50 lay within 101 to 999 nM in test [1] and 1000 to 10000 nM in test [2].

On to `Nc1cc(OCc2cc(S(F)(F)(F)(F)F)ccc2F)c2nn[nH]c2n1` [Example 226, 7-(5-Pentafluorosulfanyl-2-fluorobenzyloxy)-3H-[1,2,3]triazolo[4,5-b]pyridin-5-amine], for which the results for the IC50 in test [1] and in test [2] were 1 to 100 nM and 101 to 999 nM, respectively.

As to `Nc1cc(OCc2c(F)cc(-c3ccc(N4CCOCC4)nc3)cc2F)c2nn[nH]c2n1` [Example 335, 7-((2,6-difluoro-4-(6-morpholinopyridin-3-yl)benzyl)oxy)-3H-[1,2,3]triazolo[4,5-b] pyridin-5-amine], the IC50 in test [1] lay in the range of 1 to 100 nM.

Regarding `Nc1ccc(-c2cc(F)c(COc3cc(N)nc4[nH]nnc34)c(F)c2)cn1` [Example 337, 7-((4-(6-aminopyridin-3-yl)-2,6-difluorobenzyl)oxy)-3H-[1,2,3]triazolo[4,5-b] pyridin-5-amine], the IC50 in test [1] was 1 to 100 nM.

As to `N#Cc1ccc(-c2cc(F)c(COc3cc(N)nc4[nH]nnc34)c(F)c2)cn1` [Example 338, 5-(4-(((5-amino-3H-[1,2,3]triazolo[4,5-b]pyridin-7-yl)oxy)methyl)-3,5-difluorophenyl) picolinonitrile], the IC50 in test [1] lay within 1 to 100 nM.

Consider `Nc1cc(OCc2c(F)cc(-c3ccc(OCc4ccccc4)nc3)cc2F)c2nn[nH]c2n1` [Example 339, 7-((4-(6-(benzyloxy)pyridin-3-yl)-2,6-difluorobenzyl)oxy)-3H-[1,2,3]triazolo[4,5-b] pyridin-5-amine], for which the 50% inhibitory concentration (IC50) in test [1] was in the range of 101 to 999 nM.

Turning to `Nc1cc(OCc2c(F)cc(-c3ccc(F)nc3F)cc2F)c2nn[nH]c2n1` [Example 340, 7-((4-(2,6-difluoropyridin-3-yl)-2,6-difluorobenzyl)oxy)-3H-[1,2,3]triazolo[4,5-b]pyridin-5-amine], in test [1], the IC50 is 101 to 999 nM.

Take `NC(=O)c1ccc(-c2cc(F)c(COc3cc(N)nc4[nH]nnc34)c(F)c2)cn1` [Example 341, 5-(4-(((5-amino-3H-[1,2,3]triazolo[4,5-b]pyridin-7-yl)oxy)methyl)-3,5-difluorophenyl) picolinamide]: the IC50 in test [1] lay within 1 to 100 nM.

In the case of `Nc1cc(OCc2c(F)ccc(-c3ccc(N4CCOCC4)nc3)c2Cl)c2nn[nH]c2n1` [Example 342, 7-((2-chloro-6-fluoro-3-(6-morpholinopyridin-3-yl)benzyl)oxy)-3H-[1,2,3]triazolo[4,5-b] pyridin-5-amine], in test [1], the IC50 fell in the range of 1 to 100 nM.

Take `Nc1cncc(-c2ccc(F)c(COc3cc(N)nc4[nH]nnc34)c2Cl)c1` [Example 343, 7-((3-(5-aminopyridin-3-yl)-2-chloro-6-fluorobenzyl)oxy)-3H-[1,2,3]triazolo[4,5-b] pyridin-5-amine]: in test [1], the concentration for half-maximal inhibition (IC50) lay within 1 to 100 nM.

With `Nc1cc(OCc2c(F)ccc(-c3ccc(N4CCNCC4)nc3)c2Cl)c2nn[nH]c2n1` [Example 344, 7-((2-chloro-6-fluoro-3-(6-(piperazin-1-yl)pyridin-3-yl)benzyl)oxy)-3H-[1,2,3]triazolo [4,5-b]pyridin-5-amine], the half-inhibitory concentration (IC50) in test [1] was 1 to 100 nM.

On to `CN1CCN(c2ccc(-c3ccc(F)c(COc4cc(N)nc5[nH]nnc45)c3)cn2)CC1` [Example 346, 7-((2-fluoro-5-(6-(4-methylpiperazin-1-yl)pyridin-3-yl)benzyl)oxy)-3H-[1,2,3]triazolo [4,5-b]pyridin-5-amine], for which, in test [1], the 50% inhibitory concentration (IC50) was in the range of 101 to 999 nM.

Consider `Nc1cc(OCc2cc(-c3ccc(CO)nc3)ccc2F)c2nn[nH]c2n1` [Example 347, (5-(3-(((5-amino-3H-[1,2,3]triazolo[4,5-b]pyridin-7-yl)oxy)methyl)-4-fluorophenyl)pyridin-2-yl)methanol], for which the half-maximal inhibitory concentration (IC50) in test [1] lay in the range of 1 to 100 nM.

For the molecule `CN1CCN(c2ncc(-c3ccc(F)c(COc4cc(N)nc5[nH]nnc45)c3Cl)cn2)CC1` [Example 348, 7-((2-chloro-6-fluoro-3-(2-(4-methylpiperazin-1-yl)pyrimidin-5-yl)benzyl)oxy)-3H-[1,2,3]triazolo[4,5-b] pyridin-5-amine], the concentration for half-maximal inhibition (IC50) in test [1] lay in the range of 101 to 999 nM.

As to `N#Cc1cc(-c2ccc(N3CCNC(=O)C3)nc2)ccc1COc1cc(N)nc2[nH]nnc12` [Example 349, 2-(((5-Amino-3H-[1,2,3]triazolo[4,5-b]pyridin-7-yl)oxy)methyl)-5-(6-(3-oxopiperazin-1-yl)pyridin-3-yl)benzonitrile], in test [1], the 50% inhibitory concentration (IC50) fell in the range of 101 to 999 nM.

In the case of `CC1CN(c2ccc(-c3ccc(COc4cc(N)nc5[nH]nnc45)c(C#N)c3)cn2)CC(C)N1` (stereo not drawn) [Example 350, 2-(((5-Amino-3H-[1,2,3]triazolo[4,5-b]pyridin-7-yl)oxy)methyl)-5-(6-(3,5-dimethylpiperazin-1-yl)pyridin-3-yl)benzonitrile], the IC50 in test [1] is 1 to 100 nM.

`N#Cc1ccc(OC(F)F)cc1COc1cc(N)nc2[nH]nnc12` [Example 351, 2-(((5-amino-3H-[1,2,3]triazolo[4,5-b]pyridin-7-yl)oxy)methyl)-4-(difluoromethoxy)benzonitrile]: the 50% inhibitory concentration (IC50) in test [1] was in the range of 1 to 100 nM.

As to `N#Cc1ccc(OC2CC2)cc1COc1cc(N)nc2[nH]nnc12` [Example 352, 2-(((5-amino-3H-[1,2,3]triazolo[4,5-b]pyridin-7-yl)oxy)methyl)-4-cyclopropoxybenzonitrile], in test [1], the IC50 fell in the range of 1 to 100 nM.
